In patent publication US5510385A, “Pharmaceutical compositions containing the salts of S(+)-2-(4-isobutylphenyl)propionic acid with basic aminoacids” (priority 1993, dated 1996):
Counter-ions that a name gives are not always drawn.

Tests used:
[1] = S(+)-Ibuprofen plasma concentrations and bioavailability parameters after single oral dose, cross-over (Examples 6-10, HPLC)
Description: Each subject was apparently healthy, especially as lap as the Renal, hepatic and hematopoietic functions were concerned.
For the trial, a cross-over design was adopted: each subject received both preparations in two treatment sessions carried out in two different weeks randomizing the order of the administration.
Further, samples of venous blood were withdrawn at 5, 10, 15, 30, 45, 60, 90, 120, 240 and 480 minutes after the treatment. Plasma was then prepared by centrifugation and preserved at -20° C. until the analysis.
The analytical determination of the active ingredient in the plasma samples was carried out by HPLC method as described hereinafter. Chromatographic conditions:
Apparatus: JASCO BIP-1 with U.V. detector UVI DEC-100 v
Column: Chiral AGP, 100×4.0 mm, 5 μm (Chron Tech) with a precolumn Chiral AGP 10×3.0 mm (Chron Tech) […]
The following parameters were calculated:
the area under curve of S(+)-Ibuprofen plasma concentration from time "zero" to "infinite" (AUCtot) was calculated by the following formula: AUCtot =AUCo→480 +AUC480→- wherein AUC480- =concentration at 480 minutes/Ke. and Ke =elimination constant
mean peak time (tmax), expressed as minutes, was obtained from the average of each peak time
the mean peak of maximum plasma concentration (Cmax), expressed as μg/ml, was calculated by the average of each concentration peak value.

[2] = in words, versus Ibuprofen (and, EP 424028, Ibuprofen salts and S(+)-Ibuprofen); cited from earlier work

increase of S(+)-Ibuprofen maximum plasma concentration over equivalent Ibuprofen salt composition ([1]; 400 mg or 300 mg of S(+)-Ibuprofen versus 800 mg or 600 mg of Ibuprofen, oral) | S(+)-Ibuprofen maximum plasma concentration (Cmax) compared with equivalent racemic Ibuprofen treatment ([1]; in words, versus reference treatment) | Compound | analgesic effect (onset and duration) [2]
15-20% | substantially equal | CC(C)Cc1ccc([C@H](C)C(=O)O)cc1 [S(+)-Ibuprofen arginate, salt of S(+)-Ibuprofen with L-arginine] | 
 |  | CC(C)Cc1ccc([C@H](C)C(=O)O)cc1 [S(+)-Ibuprofen, (S)-enantiomer of 2-(4-isobutylphenyl)propionic acid] | faster, and consequently a longer, analgesic effect than Ibuprofen
